“Also recorded” adds a separate entry of the source.
How the values were obtained:
[1] = system: phosphodiesterase enzymes; conditions: background; cited from earlier work
anesthetized dog = conditions: background; cited from earlier work
rats = test: Anti-inflammatory test (Winter et al.), foot volume in rats; assay type: in vivo, rat; conditions: oral, 100 mg/kg
Source text: Following the procedure of C. A. Winter, et al as described in the Proc. Exper.

[2] = system: isolated guinea pig uteri; test: Smooth muscle relaxation of isolated guinea pig uteri; conditions: 2-10 μg/ml
[3] = system: isolated guinea pig heart preparation; test: Coronary dilation in isolated guinea pig heart preparation; conditions: 10 μg/ml, preliminary
[4] = system: 3',5'-Cyclic AMP phosphodiesterase (PDE) from lung; test: 3',5'-Cyclic AMP phosphodiesterase (PDE) inhibition, rabbit lung enzyme (Fraction II, low Km); assay type: biochemical; conditions: relative to theophylline, cAMP about 1.7 × 10^-7 M, 30° C., 10 minutes, pH 7.5
[5] = system: 3',5'-Cyclic AMP phosphodiesterase (PDE) from kidney; test: 3',5'-Cyclic AMP phosphodiesterase (PDE) inhibition, rabbit kidney enzyme (Fraction II, low Km); assay type: biochemical; conditions: relative to theophylline, cAMP about 1.7 × 10^-7 M, 30° C., 10 minutes, pH 7.5
[6] = system: isolated guinea pig heart preparation; test: Inotropic effect in isolated guinea pig heart preparation; conditions: 10 μg/ml

Row | PDE Lung; α (I50 theophylline / I50 compound) [4] | PDE Kidney; α (I50 theophylline / I50 compound) [5] | Compound | phosphodiesterase inhibition [1] | positive inotropic effect (anesthetized dog) | anti-inflammatory activity (rats) | inhibition of foot volume (rats) | smooth muscle relaxation [2] | coronary dilation [3] | positive inotropic effect [6]
1 |  |  | Cc1cc(C)n2ncc(Br)c2n1 [3-bromo-5,7-dimethylpyrazolo[1,5a]pyrimidine] | significantly more active than theophylline against various phosphodiesterase enzymes | positive inotropic effect |  |  |  |  | 
2 | 0.75 | 0.75 | Cc1cc(O)n2nc(SCc3ccccc3)nc2n1 [Compound 24, 2-benzylthio-7-hydroxy-5-methyl-s-triazolo[1,5a]pyrimidine] |  |  | significant activity | 43% | smooth muscle relaxants | coronary dialation | 
3 | 2.10 | 2.30 | Cc1cc(N(CCO)CCO)n2nc(SCc3ccccc3)nc2n1 [Compound 29, 2-benzylthio-7-[bis(β-hydroxyethyl)amino]-5-methyl-s-triazolo[1,5a]pyrimidine] |  |  |  |  | smooth muscle relaxants | coronary dialation | positive inotropic effect
4 |  |  | Cn1c(=O)c2[nH]cnc2n(C)c1=O [Theophylline] | does not selectively inhibit phosphodiesterase; also recorded: not as potent as a phosphodiesterase inhibitor as is desired |  |  |  |  |  | 

Source: patent US4036840A, “2-Substituted-s-triazolo[1,5a]pyrimidines” (ICN Pharmaceuticals, priority 1975, dated 1977)
